{"source": "ChEMBL document CHEMBL3885861", "about": "“Open TG-GATES”", "species": "Rattus norvegicus", "assay": "Open TG-GATES - Regimen: Daily Repeat", "assay_type": "toxicity, organism-based, Sprague-Dawley", "set-up": "regimen Daily Repeat, gender Male, age 6 weeks", "details": "in vivo, po, 10 mg/kg, route gavage, dose level Low; for KIDNEY_L / KIDNEY_R / KIDNEY_TOTAL: tissue Kidney; for AST / CRE / GLC / IP / K / LDH / RALB / TBIL / TC / TP / gamma-GTP: tissue Plasma"}
{"smiles": "CN(C)CCCN1c2ccccc2CCc2ccccc21", "note": "[IMIPRAMINE]", "values": [{"measurement": "TERMINAL_BW", "setting": "72 h, time 3 day", "result": 229.5, "unit": "g"}, {"measurement": "APTT", "setting": "72 h, tissue Blood, time 3 day", "result": 16.1, "unit": "s"}, {"measurement": "Bas", "setting": "72 h, tissue Blood, time 3 day", "result": 0, "unit": "%"}, {"measurement": "Eos", "setting": "72 h, tissue Blood, time 3 day", "result": 1, "unit": "%"}, {"measurement": "Fbg", "setting": "72 h, tissue Blood, time 3 day", "result": 294, "unit": "mg/dL"}, {"measurement": "Ht", "setting": "72 h, tissue Blood, time 3 day", "result": 41.4, "unit": "%"}, {"measurement": "Lym", "setting": "72 h, tissue Blood, time 3 day", "result": 82.6, "unit": "%"}, {"measurement": "MCHC", "setting": "72 h, tissue Blood, time 3 day", "result": 32.5, "unit": "%"}, {"measurement": "MCV", "setting": "72 h, tissue Blood, time 3 day", "result": 65.4, "unit": "fL"}, {"measurement": "Mono", "setting": "72 h, tissue Blood, time 3 day", "result": 2.8, "unit": "%"}, {"measurement": "Neu", "setting": "72 h, tissue Blood, time 3 day", "result": 12.8, "unit": "%"}, {"measurement": "PT", "setting": "72 h, tissue Blood, time 3 day", "result": 15.9, "unit": "s"}, {"measurement": "Plat", "setting": "72 h, tissue Blood, time 3 day", "result": 115.2, "unit": "x10_4/uL"}, {"measurement": "RBC", "setting": "72 h, tissue Blood, time 3 day", "result": 633, "unit": "x10_4/ul"}, {"measurement": "Ret", "setting": "72 h, tissue Blood, time 3 day", "result": 5.6, "unit": "%"}, {"measurement": "KIDNEY_L", "setting": "72 h, time 3 day", "result": 1, "unit": "g"}, {"measurement": "KIDNEY_R", "setting": "72 h, time 3 day", "result": 1, "unit": "g"}, {"measurement": "KIDNEY_TOTAL", "setting": "72 h, time 3 day", "result": 2, "unit": "g"}, {"measurement": "AST", "setting": "72 h, time 3 day", "result": 67, "unit": "IU/L"}, {"measurement": "CRE", "setting": "72 h, time 3 day", "result": 0.2, "unit": "mg/dL"}, {"measurement": "GLC", "setting": "72 h, time 3 day", "result": 185.4, "unit": "mg/dL"}, {"measurement": "IP", "setting": "72 h, time 3 day", "result": 7.7, "unit": "mg/dL"}, {"measurement": "K", "setting": "72 h, time 3 day", "result": 4.1, "unit": "meq/L"}, {"measurement": "LDH", "setting": "72 h, time 3 day", "result": 63.4, "unit": "IU/L"}, {"measurement": "RALB", "setting": "72 h, time 3 day", "result": 2.6, "unit": "g/dL"}, {"measurement": "TBIL", "setting": "72 h, time 3 day", "result": 0.06, "unit": "mg/dL"}, {"measurement": "TC", "setting": "72 h, time 3 day", "result": 81.6, "unit": "mg/dL"}, {"measurement": "TP", "setting": "72 h, time 3 day", "result": 5.8, "unit": "g/dL"}, {"measurement": "gamma-GTP", "setting": "72 h, time 3 day", "result": 1, "unit": "IU/L"}, {"measurement": "TERMINAL_BW", "setting": "[…], time 7 day", "result": 262.8, "unit": "g"}, {"measurement": "TERMINAL_BW", "setting": "[…], time 14 day", "result": 310.9, "unit": "g"}, {"measurement": "TERMINAL_BW", "setting": "[…], time 28 day", "result": 402.9, "unit": "g"}, {"measurement": "APTT", "setting": "[…], tissue Blood, time 7 day", "result": 15.6, "unit": "s"}, {"measurement": "Bas", "setting": "[…], tissue Blood, time 7 day", "result": 0, "unit": "%"}, {"measurement": "Eos", "setting": "[…], tissue Blood, time 7 day", "result": 1.2, "unit": "%"}, {"measurement": "Fbg", "setting": "[…], tissue Blood, time 7 day", "result": 291.6, "unit": "mg/dL"}, {"measurement": "Ht", "setting": "[…], tissue Blood, time 7 day", "result": 40.2, "unit": "%"}, {"measurement": "Lym", "setting": "[…], tissue Blood, time 7 day", "result": 80, "unit": "%"}, {"measurement": "MCHC", "setting": "[…], tissue Blood, time 7 day", "result": 33.3, "unit": "%"}, {"measurement": "MCV", "setting": "[…], tissue Blood, time 7 day", "result": 62.5, "unit": "fL"}, {"measurement": "Mono", "setting": "[…], tissue Blood, time 7 day", "result": 1.8, "unit": "%"}, {"measurement": "PT", "setting": "[…], tissue Blood, time 7 day", "result": 15.9, "unit": "s"}, {"measurement": "Plat", "setting": "[…], tissue Blood, time 7 day", "result": 120.1, "unit": "x10_4/uL"}, {"measurement": "RBC", "setting": "[…], tissue Blood, time 7 day", "result": 644.6, "unit": "x10_4/ul"}, {"measurement": "Ret", "setting": "[…], tissue Blood, time 7 day", "result": 4.8, "unit": "%"}, {"measurement": "APTT", "setting": "[…], tissue Blood, time 14 day", "result": 16.5, "unit": "s"}, {"measurement": "Bas", "setting": "[…], tissue Blood, time 14 day", "result": 0.2, "unit": "%"}, {"measurement": "Eos", "setting": "[…], tissue Blood, time 14 day", "result": 0.8, "unit": "%"}, {"measurement": "Fbg", "setting": "[…], tissue Blood, time 14 day", "result": 281.2, "unit": "mg/dL"}, {"measurement": "Ht", "setting": "[…], tissue Blood, time 14 day", "result": 41.8, "unit": "%"}, {"measurement": "Lym", "setting": "[…], tissue Blood, time 14 day", "result": 83.2, "unit": "%"}, {"measurement": "MCHC", "setting": "[…], tissue Blood, time 14 day", "result": 33.8, "unit": "%"}, {"measurement": "MCV", "setting": "[…], tissue Blood, time 14 day", "result": 60.5, "unit": "fL"}, {"measurement": "Mono", "setting": "[…], tissue Blood, time 14 day", "result": 2.2, "unit": "%"}, {"measurement": "PT", "setting": "[…], tissue Blood, time 14 day", "result": 16.3, "unit": "s"}, {"measurement": "Plat", "setting": "[…], tissue Blood, time 14 day", "result": 108.3, "unit": "x10_4/uL"}, {"measurement": "RBC", "setting": "[…], tissue Blood, time 14 day", "result": 691.6, "unit": "x10_4/ul"}, {"measurement": "Ret", "setting": "[…], tissue Blood, time 14 day", "result": 4.1, "unit": "%"}, {"measurement": "APTT", "setting": "[…], tissue Blood, time 28 day", "result": 17.3, "unit": "s"}, {"measurement": "Bas", "setting": "[…], tissue Blood, time 28 day", "result": 0.4, "unit": "%"}, {"measurement": "Eos", "setting": "[…], tissue Blood, time 28 day", "result": 1.4, "unit": "%"}, {"measurement": "Fbg", "setting": "[…], tissue Blood, time 28 day", "result": 284.6, "unit": "mg/dL"}, {"measurement": "Ht", "setting": "[…], tissue Blood, time 28 day", "result": 43.7, "unit": "%"}, {"measurement": "Lym", "setting": "[…], tissue Blood, time 28 day", "result": 81.4, "unit": "%"}, {"measurement": "MCHC", "setting": "[…], tissue Blood, time 28 day", "result": 34, "unit": "%"}, {"measurement": "MCV", "setting": "[…], tissue Blood, time 28 day", "result": 56.5, "unit": "fL"}, {"measurement": "Mono", "setting": "[…], tissue Blood, time 28 day", "result": 2.4, "unit": "%"}, {"measurement": "PT", "setting": "[…], tissue Blood, time 28 day", "result": 16.4, "unit": "s"}, {"measurement": "Plat", "setting": "[…], tissue Blood, time 28 day", "result": 96.2, "unit": "x10_4/uL"}, {"measurement": "RBC", "setting": "[…], tissue Blood, time 28 day", "result": 773.2, "unit": "x10_4/ul"}, {"measurement": "Ret", "setting": "[…], tissue Blood, time 28 day", "result": 2.3, "unit": "%"}, {"measurement": "KIDNEY_L", "setting": "[…], time 7 day", "result": 1.1, "unit": "g"}, {"measurement": "KIDNEY_R", "setting": "[…], time 7 day", "result": 1.1, "unit": "g"}, {"measurement": "KIDNEY_TOTAL", "setting": "[…], time 7 day", "result": 2.1, "unit": "g"}, {"measurement": "KIDNEY_L", "setting": "[…], time 14 day", "result": 1.3, "unit": "g"}, {"measurement": "KIDNEY_R", "setting": "[…], time 14 day", "result": 1.2, "unit": "g"}, {"measurement": "KIDNEY_TOTAL", "setting": "[…], time 14 day", "result": 2.5, "unit": "g"}, {"measurement": "KIDNEY_L", "setting": "[…], time 28 day", "result": 1.4, "unit": "g"}, {"measurement": "KIDNEY_R", "setting": "[…], time 28 day", "result": 1.3, "unit": "g"}, {"measurement": "KIDNEY_TOTAL", "setting": "[…], time 28 day", "result": 2.7, "unit": "g"}, {"measurement": "AST", "setting": "[…], time 7 day", "result": 63.8, "unit": "IU/L"}, {"measurement": "CRE", "setting": "[…], time 7 day", "result": 0.2, "unit": "mg/dL"}, {"measurement": "GLC", "setting": "[…], time 7 day", "result": 182.6, "unit": "mg/dL"}, {"measurement": "IP", "setting": "[…], time 7 day", "result": 7.4, "unit": "mg/dL"}, {"measurement": "K", "setting": "[…], time 7 day", "result": 4.2, "unit": "meq/L"}, {"measurement": "LDH", "setting": "[…], time 7 day", "result": 123.4, "unit": "IU/L"}, {"measurement": "RALB", "setting": "[…], time 7 day", "result": 2.6, "unit": "g/dL"}, {"measurement": "TBIL", "setting": "[…], time 7 day", "result": 0.05, "unit": "mg/dL"}, {"measurement": "TC", "setting": "[…], time 7 day", "result": 75.8, "unit": "mg/dL"}, {"measurement": "TP", "setting": "[…], time 7 day", "result": 5.9, "unit": "g/dL"}, {"measurement": "gamma-GTP", "setting": "[…], time 7 day", "result": 0.8, "unit": "IU/L"}, {"measurement": "AST", "setting": "[…], time 14 day", "result": 66.4, "unit": "IU/L"}, {"measurement": "CRE", "setting": "[…], time 14 day", "result": 0.2, "unit": "mg/dL"}, {"measurement": "GLC", "setting": "[…], time 14 day", "result": 175.6, "unit": "mg/dL"}, {"measurement": "IP", "setting": "[…], time 14 day", "result": 6.8, "unit": "mg/dL"}, {"measurement": "K", "setting": "[…], time 14 day", "result": 4.3, "unit": "meq/L"}, {"measurement": "LDH", "setting": "[…], time 14 day", "result": 62.8, "unit": "IU/L"}, {"measurement": "RALB", "setting": "[…], time 14 day", "result": 2.7, "unit": "g/dL"}, {"measurement": "TBIL", "setting": "[…], time 14 day", "result": 0.048, "unit": "mg/dL"}, {"measurement": "TC", "setting": "[…], time 14 day", "result": 72, "unit": "mg/dL"}, {"measurement": "TP", "setting": "[…], time 14 day", "result": 6.2, "unit": "g/dL"}, {"measurement": "gamma-GTP", "setting": "[…], time 14 day", "result": 0.4, "unit": "IU/L"}, {"measurement": "AST", "setting": "[…], time 28 day", "result": 62.2, "unit": "IU/L"}, {"measurement": "CRE", "setting": "[…], time 28 day", "result": 0.2, "unit": "mg/dL"}, {"measurement": "GLC", "setting": "[…], time 28 day", "result": 183.2, "unit": "mg/dL"}, {"measurement": "IP", "setting": "[…], time 28 day", "result": 6.9, "unit": "mg/dL"}, {"measurement": "K", "setting": "[…], time 28 day", "result": 3.8, "unit": "meq/L"}, {"measurement": "LDH", "setting": "[…], time 28 day", "result": 53.6, "unit": "IU/L"}, {"measurement": "RALB", "setting": "[…], time 28 day", "result": 2.8, "unit": "g/dL"}, {"measurement": "TBIL", "setting": "[…], time 28 day", "result": 0.052, "unit": "mg/dL"}, {"measurement": "TC", "setting": "[…], time 28 day", "result": 64.2, "unit": "mg/dL"}, {"measurement": "TP", "setting": "[…], time 28 day", "result": 6.3, "unit": "g/dL"}, {"measurement": "gamma-GTP", "setting": "[…], time 28 day", "result": 1, "unit": "IU/L"}]}
